Data on four compounds can be found in patent US4172118A, “Diphenylamine containing therapeutic composition and its applications, particularly in veterinary medicine” (METABIO, priority 1976, dated 1979).

SMILES strings stand for the structures.

Data set [1] relates to serum glutamic oxalacetic transaminase (S.G.O.T.). As to the kind of experiment: Carbon tetrachloride intoxication in ewes, S.G.O.T. level. The data set is classed as in vivo, Ile-de-France ewes. The note with it: CCl4 3600 mg/kg sub-cutaneous. As for the experimental part:
4. Two groups of non-pregnant Ile-de-France ewes, weighing from 46 to 68 kg, were intoxicated with carbon tetrachloride administered sub-cutaneously at a dosage of 3600 mg/kg, as a suspension in vaseline oil.
The second group alone was simultaneously administered diphenylamine at a dosage of 100 mg/kg.
The criterion used to evaluate the magnitude of the intoxication was the variation of the serum glutamic oxalacetic transaminase (S.G.O.T.) level.
In the following Table, the percent increase of said serum levels is given with respect to the level determined prior to the intoxication.

A further data set concerns liver. As to the kind of experiment: Pentobarbital-induced sleeping test in mice (hepato-toxicity of carbon tetrachloride). The data set is classed as in vivo. The conditions noted are these: CCl4 0.075 ml/kg; protected group with diphenylamine 4 mg/kg; reference group 20 mn. As for the experimental part: 3. […] This test provides a measure of the capability of the liver to metabolize some toxic materials. The principle is as follows: in normal mice, a certain sleeping time is induced by a certain dosage of pentobarbital; in mice which have been administered 48 hours previously a hepato-toxic material, the same pentobarbital dosage induces a longer sleeping time, because the injured liver has greater difficulty in metabolizing pentobarbital; on administration of a supposedly detoxicant material 24 hours after the toxic material, one may examine whether sleeping time is reduced or not and, thus, may quantify the resulting protection.
This test is effected using carbon tetrachloride as toxicant at a dosage of 0.075 ml/kg, and diphenylamine as protective material at a dosage of 4 mg/kg.

A short description of data set [2]: Acute toxicity of bithionol sulfoxide with/without diphenylamine in mice (death rate). The data set is classed as in vivo, mice (male). The note with it: mouse, in vivo, 7 days. As for the experimental part:
(§1) The acute toxicity of bithionol sulfoxide was compared with that of a combination of 20 parts bithionol sulfoxide per part diphenylamine.
(§2) Ten groups of 10 male mice each were used for this test. Five reference groups were administered increasing dosages of bithionol sulfoxide alone. The five other groups were administered the bithionol sulfoxide+diphenylamine combination. The test materials were administered orally.
(§3) The data relating to the death rate variations in both groups, with respect to the dosages of product used, are set forth in the following Table.

The next data set deals with Limousin ewes. Briefly: Hexachlorophene intoxication in ewes, clinical signs and weight. The format is in vivo. As for the experimental part: 5. Two groups of non-pregnant Limousin ewes, weighing from 45 to 52 kg, were intoxicated with hexachlorophene at a dosage of 90 mg/kg, administered orally; whereas the generally used therapeutic dosage is 10 mg/kg.
The clinical signs, and particularly the variation of the weight curve, were noted over a 5 day period of time.
One of the groups was simultaneously administered 2 mg/kg diphenylamine, by the same route of administration.

In the next data set the test system is Nematodes. The conditions noted are these: in dogs; C.A., Vol. 35, 197, 9; cited from earlier work.
The conditions of data set [3]: C.A., Vol. 50-15949d; cited from earlier work.
Data set [4] deals with mice. As to the kind of experiment: Acute toxicity of bithionol sulfoxide with/without diphenylamine in mice (death rate). The data set is classed as in vivo, mice (male). The note with it: mice, oral; conclusion in words. As for the experimental part:
as §1, §2, §3

For data set [5], the system named is mice. Briefly: Acute toxicity of hexachlorophene with/without diphenylamine in mice (death rate). The format is in vivo, mice (male). The note with it: mice, oral; conclusion in words. The protocol:
(§4) Acute toxicity tests were conducted in mice. The death rate noted in mice administered hexachlorophene alone was compared with that noted in mice which were administered the same dosages of hexachlorophene, but which had previously been protected by administration of diphenylamine.
(§5) Ten groups of 10 male mice each were used in such experiments. Five reference groups were given hexachlorophene alone, at increasing dosages. The five other groups were administered diphenylamine at a dosage of 1.5 mg/kg one-half hour prior to administration of the same hexachlorophene dosages as the reference animals. Both compounds were administered orally, using peanut oil as the excipient.
(§6) The data relating to the death rate variations in both groups, with respect to the dosages of compound used, are set forth in the following Table.

The next data set relates to myases. The conditions noted are these: in animals; Merck Index, 8th Ed., p. 387; cited from earlier work.
Another data set relates to sheep. Briefly: Hexachlorophene oral intoxication in sheep with/without diphenylamine (deaths). The format is in vivo. The note with it: for Number of sheep killed: of 5 sheep. The protocol: 7. Six groups of 5 sheep each were orally intoxicated with increasing dosages of hexachlorophene (135-142.5-150 mg/kg) with or without diphenylamine.
The conditions of data set [6]: C.A., Vol. 54 17708g; cited from earlier work.
Data set [7] in a line: Acute toxicity of hexachlorophene with/without diphenylamine in mice (death rate). The data set is classed as in vivo, mice (male). The conditions noted are these: mouse, in vivo, 7 days, combination: diphenylamine 1.5 mg/kg oral one-half hour prior. As for the experimental part:
as §4, §5, §6

The mark [8] stands for this setting: hexachlorophene 90 mg/kg oral, 5 days, protected group with diphenylamine 2 mg/kg oral.

Take `ClC(Cl)(Cl)Cl` [CCl4, carbon tetrachloride]: the “Percent S.G.O.T. increase” value in [1] (vs level prior to intoxication, Group II with diphenylamine 100 mg/kg simultaneously) came to 91%. This compound returned a Sleeping time in the data set on liver of 109 mn.

Turning to `[O-][S+](c1cc(Cl)cc(Cl)c1O)c1cc(Cl)cc(Cl)c1O` [bithionol sulfoxide], the mortality at 168 h amounted to 0% in data set [2] (bithionol sulfoxide 450 mg/kg oral, Group II with diphenylamine 22.5 mg/kg); 10% in data set [2] (bithionol sulfoxide 600 mg/kg oral, Group II with diphenylamine 30 mg/kg); 20% in data set [2] (bithionol sulfoxide 800 mg/kg oral, Group II with diphenylamine 40 mg/kg); 40% in data set [2] (bithionol sulfoxide 1066 mg/kg oral, Group II with diphenylamine 53 mg/kg); 30% in data set [2] (bithionol sulfoxide 1420 mg/kg oral, Group II with diphenylamine 71 mg/kg).

With `c1ccc(Nc2ccccc2)cc1` [diphenylamine], the “weight stabilization and reduction of the clinical signs” value with Limousin ewes (hexachlorophene 90 mg/kg, diphenylamine 2 mg/kg, oral, conclusion in words) is “weight stabilization and the most substantial reduction of the clinical signs”. Further, the “action against certain Nematodes” value in the data set with Nematodes is reported as “against certain Nematodes in dogs”. In addition, the “S.G.O.T. level increase (in words)” value in [1] (diphenylamine 100 mg/kg) is reported as “S.G.O.T. level increases in a significantly reduced manner”. Moreover, the antiparasitic activity entry in data set [3] is listed as “antiparasitic activity”. Moreover, the “bithionol sulfoxide-induced acute toxicity” value in the data set with mice [4] is on record as “reduces the bithionol sulfoxide-induced acute toxicity in mice”. Besides, in the data set with mice [5], the hexachlorophene-induced acute toxicity entry is recorded as “reduces the hexachlorophene-induced acute toxicity in mice”. In addition, the “action against certain myases” value with myases is “action against certain myases”. Also, the “death rate (in words)” value in the data set with sheep (hexachlorophene 135-142.5-150 mg/kg oral, sheep) is given as “significant decrease of the death rate”. In addition, in data set [6], the anticonvulsant activity entry is given as “anticonvulsant activity”.

Turning to `Oc1c(Cl)cc(Cl)c(Cl)c1Cc1c(O)c(Cl)cc(Cl)c1Cl` [hexachlorophene], the convulsions result with Limousin ewes (hexachlorophene 90 mg/kg oral, 5 days, one animal of the group) is listed as “in one animal of the group, convulsions were observed”. Further, in the data set on Limousin ewes (setting [8]), the clinical signs entry is listed as “a sustained state of exhaustion was noted in the animals throughout the observation period”. Further, the “loss of weight (in words)” value with Limousin ewes (setting [8]) is listed as “General loss of weight was noted”. Also, in the data set with Limousin ewes (hexachlorophene 90 mg/kg oral, unprotected group), the “decrease of the weight within five days” value is recorded as 14.38%. The average weight with Limousin ewes (hexachlorophene 90 mg/kg oral, unprotected after five days (48.6 kg before), protected with diphenylamine 2 mg/kg, remained stable) was 41.66 kg. Also, the mortality at 168 h in data set [7] (hexachlorophene 109.6 mg/kg oral) was 10%; in data set [7] (hexachlorophene 128.2 mg/kg oral), 20%; in data set [7] (hexachlorophene 150 mg/kg oral), 20%; in [7] (hexachlorophene 175.5 mg/kg oral), 40%; in [7] (hexachlorophene 205.3 mg/kg oral) it was 60%. Besides, the “Number of sheep killed” value with sheep (hexachlorophene 135 mg/kg oral, diphenylamine 0 or 1.58 mg/kg) is 1; in the data set with sheep (hexachlorophene 142.5 mg/kg oral, diphenylamine 0 or 1.67 mg/kg), 4; with sheep (hexachlorophene 150 mg/kg oral, diphenylamine 0 or 1.76 mg/kg) it was 5.
